Measured values taken from the supplement of paper PMC10307832.

Experiments:
Experiment in all cases: relative viability (nuclei count vs DMSO), 5 days (fraction); higher = more cells survive
LC-2-ad = tested on: LC-2-ad
In short: (§1)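 Relative viability is defined as nuclei in treated wells over nuclei in vehicle wells. Duplicate plates were run and medians reported. Lung cancer cell lines in 1536-well plates were dosed by pin tool one day after seeding, with one drug or with a fixed anchor-drug dose plus five library-drug doses (not always all listed) in √10 steps, and nuclei were counted after 5 days.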

PC-3 [JPC-3] = tested on: PC-3 [JPC-3]
In short: as §1

RERF-LC-KJ = tested on: RERF-LC-KJ
In short: as §1

NCI-H1792 = tested on: NCI-H1792
In short: as §1

SW 1573 = tested on: SW 1573
In short: as §1

A-427 = tested on: A-427
In short: as §1

NCI-H647 = tested on: NCI-H647
In short: as §1

LOU-NH91 = tested on: LOU-NH91
In short: as §1

NCI-H460 = tested on: NCI-H460
In short: as §1

HOP-62 = tested on: HOP-62
In short: as §1

NCI-H2126 = tested on: NCI-H2126
In short: as §1

NC(=O)Nc1cc(-c2cccc(F)c2)sc1C(=O)N[C@H]1CCCNC1 [AZD7762] + CS(=O)(=O)CCNCc1ccc(-c2ccc3ncnc(Nc4ccc(OCc5cccc(F)c5)c(Cl)c4)c3c2)o1 [Lapatinib] (partner 2 µM)
relative viability (LC-2-ad; first compound 0.01 µM): 1.05
relative viability (LC-2-ad; first compound 0.03162 µM): 1.04
relative viability (LC-2-ad; first compound 0.1 µM): 0.47
relative viability (LC-2-ad; first compound 0.3162 µM): 0.392
relative viability (LC-2-ad; first compound 1 µM): 0.258
relative viability (PC-3 [JPC-3]; first compound 0.01 µM): 0.473
relative viability (PC-3 [JPC-3]; first compound 0.03162 µM): 0.447
relative viability (PC-3 [JPC-3]; first compound 0.1 µM): 0.372
relative viability (PC-3 [JPC-3]; first compound 0.3162 µM): 0.46
relative viability (PC-3 [JPC-3]; first compound 1 µM): 0.432
relative viability (RERF-LC-KJ; first compound 0.01 µM): 0.865
relative viability (RERF-LC-KJ; first compound 0.03162 µM): 0.894
relative viability (RERF-LC-KJ; first compound 0.1 µM): 0.849
relative viability (RERF-LC-KJ; first compound 0.3162 µM): 0.819
relative viability (RERF-LC-KJ; first compound 1 µM): 0.956
relative viability (NCI-H1792; first compound 0.01 µM): 0.965
relative viability (NCI-H1792; first compound 0.03162 µM): 0.911
relative viability (NCI-H1792; first compound 0.1 µM): 0.925
relative viability (NCI-H1792; first compound 0.3162 µM): 0.945
relative viability (NCI-H1792; first compound 1 µM): 1.05
relative viability (SW 1573; first compound 0.01 µM): 1.29
relative viability (SW 1573; first compound 0.03162 µM): 1.23
relative viability (SW 1573; first compound 0.1 µM): 1.16
relative viability (SW 1573; first compound 0.3162 µM): 1.24
relative viability (SW 1573; first compound 1 µM): 1.12
relative viability (A-427; first compound 0.01 µM): 1.09
relative viability (A-427; first compound 0.03162 µM): 1.05
relative viability (A-427; first compound 0.1 µM): 1.07
relative viability (A-427; first compound 0.3162 µM): 0.938
relative viability (A-427; first compound 1 µM): 0.716
relative viability (NCI-H647; first compound 0.01 µM): 1.14
relative viability (NCI-H647; first compound 0.03162 µM): 1.12
relative viability (NCI-H647; first compound 0.1 µM): 0.963
relative viability (NCI-H647; first compound 0.3162 µM): 0.519
relative viability (NCI-H647; first compound 1 µM): 0.0944
relative viability (LOU-NH91; first compound 0.01 µM): 0.792
relative viability (LOU-NH91; first compound 0.03162 µM): 0.791
relative viability (LOU-NH91; first compound 0.1 µM): 0.753
relative viability (LOU-NH91; first compound 0.3162 µM): 0.572
relative viability (LOU-NH91; first compound 1 µM): 0.639
relative viability (NCI-H460; first compound 0.01 µM): 1.07
relative viability (NCI-H460; first compound 0.03162 µM): 0.972
relative viability (NCI-H460; first compound 0.1 µM): 0.824
relative viability (NCI-H460; first compound 0.3162 µM): 0.467
relative viability (NCI-H460; first compound 1 µM): 0.0597
relative viability (HOP-62; first compound 0.01 µM): 0.993
relative viability (HOP-62; first compound 0.03162 µM): 1.06
relative viability (HOP-62; first compound 0.1 µM): 1.27
relative viability (HOP-62; first compound 0.3162 µM): 0.989
relative viability (HOP-62; first compound 1 µM): 0.565
relative viability (NCI-H2126; first compound 0.01 µM): 0.774
relative viability (NCI-H2126; first compound 0.03162 µM): 0.82
relative viability (NCI-H2126; first compound 0.1 µM): 0.834
relative viability (NCI-H2126; first compound 0.3162 µM): 0.803
relative viability (NCI-H2126; first compound 1 µM): 0.821
